Experimental findings from patent EP0705603A1, “Use of non-toxic cysteine sulfoxide derivatives in the treatment of cancer or for enhancing the T-cell count” (priority 1994, dated 1996) are described below.

Broadly, the NOAEL is the highest dose or exposure tested at which no adverse effect was seen.

Structures are written as SMILES.

This data set can be described thus: Toxicity after intravenous administration to patients. The format is in vivo, patient. Here is the method:
Aqueous solutions of t-butyl hydroperoxide are prepared by dissolving 50 ml of a 70% aqueous solution of t-butyl hydroperoxide in 1 litre of normal (0.9%) saline. 15-30 ml of this solution is given intravenously over a period of up to about 15 minutes.
Aqueous solutions of methyl, ethyl, propyl and butyl cysteine sulfoxide are prepared by dissolving 100 gram of the respective sulfoxide in 1 litre of normal (0.9%) saline. 30-60 ml of this solution (delivering an approximate […] dose of the sulfoxide) is given intravenously.
An aqueous solution of L-cystine is prepared by first dissolving 80 grams of N-methyl-D-glucamine in 1 litre of normal (0.9%) saline and the dissolving in 40 g of L-cystine. 50 to 60 ml of the solution (delivering an approximately 2 g dose of cystine) is given intravenously.
An aqueous solution of oxidised glutathione is prepared by dissolving 40 grams in 1 litre of normal (0.9%) saline. 50-60 ml of this solution (delivering an approximately 2 g dose of oxidised glutathione) is given intravenously.
The t-butyl hydroperoxide solution is administered by intravenous infusion over a period of up to about 15 minutes. This is then followed immediately by intravenous infusion of the sulfoxide, optionally with cystine and/or oxidised glutathione solutions, and then (within three minutes) Ultra High Frequency microwave radiation is commenced and is delivered over the next 20 - 30 minutes. 1 or 2 rest intervals of 2 to 3 minutes each are permitted during this application. Three such treatment sessions may be undertaken per day.
No immediate or late changes in blood pressure, renal or liver function, electrolytes or haematology have been seen from the method.

Take `N[C@@H](CSSC[C@H](N)C(=O)O)C(=O)O` [L-cystine]: under “human, in vivo, iv”, the NOAEL was > 100 mg/kg and the “symptoms suggestive of any toxicity” value is “No symptoms suggestive of any toxicity”.

On to `C=CC[S+]([O-])CC(N)C(=O)O` (stereo not drawn) [allyl cysteine sulfoxide], for which, where the note is “human, in vivo, iv”, the “symptoms suggestive of any toxicity” value is reported as “No symptoms suggestive of any toxicity”.

As for `CCCC[S+]([O-])CC(N)C(=O)O` (stereo not drawn) [butyl cysteine sulfoxide], where the note is “human, in vivo, iv”, the “symptoms suggestive of any toxicity” value is “No symptoms suggestive of any toxicity”.

As to `CC[S+]([O-])CC(N)C(=O)O` (stereo not drawn) [ethyl cysteine sulfoxide], where the note is “human, in vivo, iv”, the “symptoms suggestive of any toxicity” value is “No symptoms suggestive of any toxicity”.

Take `C[S+]([O-])CC(N)C(=O)O` (stereo not drawn) [methyl cysteine sulfoxide]: the “symptoms suggestive of any toxicity” value (human, in vivo, iv) is listed as “No symptoms suggestive of any toxicity”.

In the case of `CCC[S+]([O-])CC(N)C(=O)O` (stereo not drawn) [propyl cysteine sulfoxide], the “symptoms suggestive of any toxicity” value (human, in vivo, iv) is on record as “No symptoms suggestive of any toxicity”.

On to `CC(C)(C)OO` [t-butyl hydroperoxide], for which the “volume of saline solution of oxidising agent that can safely and effectively be administered” value (70% t-butyl hydroperoxide in water diluted in normal (0.9%) saline, intravenous, over about 5 minutes) was determined as 60 mL. The “symptoms suggestive of any toxicity” value (after the intravenous administration) is listed as “No symptoms suggestive of any toxicity”.
